The source made the active and inactive calls. The calls are words filed in the database; no cut-off is given here.

The subject of series [1] is HaCaT. The experiment in a line: Increase in serine palmitoyltransferase protein expression in human HaCaT cells at 30 ug/mL by Western blot relative to untreated control. The format is functional.
Series [2] deals with HaCaT. Nature of the series: Increase in serine palmitoyltransferase protein expression in human HaCaT cells at 100 ug/mL by Western blot relative to untreated control. The format is functional.
For series [3], the system named is HaCaT. Nature of the series: Cytotoxicity against human HaCaT cells at 50 to 200 ug/mL by MTT assay. The format is cell-based.
The subject of series [4] is HaCaT. The experiment in a line: Increase in serine palmitoyltransferase 1 mRNA expression in human HaCaT cells by RT-PCR relative to untreated control. Format: functional.
The test system of series [5] is HaCaT. The experiment in a line: Increase in serine palmitoyltransferase 2 mRNA expression in human HaCaT cells by RT-PCR relative to untreated control. Format: functional.
The test system of series [6] is HaCaT. Nature of the series: Activation of NF-kappaB expressed in human HaCaT cells by luciferase reporter gene assay. The format is cell-based.
The test system of series [7] is HaCaT. The experiment in a line: Effect on p65 nuclear expression in human HaCaT cells at 100 ug/mL after 12 hrs by Western blot. Format: functional, cell-based.

As for `COC(=O)[C@H]1c2c(/C=C/C(=O)O[C@H](Cc3ccc(O)c(O)c3)C(=O)O)ccc(O)c2O[C@@H]1c1ccc(O)c(O)c1`, the Activity was 8.9% in the series on HaCaT [1]; 23% in the series on HaCaT [2]; “Non-toxic” in the series on HaCaT [3]; 139% in the series on HaCaT [4]; 139% with HaCaT [5]. Also, the outcome in the series with HaCaT [6] and with HaCaT [7] was inactive.

Turning to `O=C(/C=C/c1ccc(O)c2c1[C@H](C(=O)O)[C@@H](c1ccc(O)c(O)c1)O2)O[C@H](Cc1ccc(O)c(O)c1)C(=O)O` [LITHOSPERMIC ACID], the Activity with HaCaT [1] was 21.7%; in the series with HaCaT [2], 55%; with HaCaT [3], “Non-toxic”; with HaCaT [4], 121%; with HaCaT [5], 151%. Moreover, the outcome in the series on HaCaT [6] and in the series on HaCaT [7] was inactive.

For the molecule `NC(=O)c1cccnc1` [NIACINAMIDE], the values for the Activity with HaCaT [2], in the series on HaCaT [4] and in the series on HaCaT [5] were 57.3%, 127% and 128%, respectively.

`COC(=O)[C@@H](Cc1ccc(O)c(O)c1)OC(=O)/C=C/c1ccc(O)c2c1[C@H](C(=O)O)[C@@H](c1ccc(O)c(O)c1)O2`: the Activity is 20.2% in the series on HaCaT [1]; 81% with HaCaT [2]; “Non-toxic” in the series on HaCaT [3]; 148% in the series with HaCaT [4]; 159% in the series with HaCaT [5]. Also, the result in the series with HaCaT [6] and in the series on HaCaT [7] was inactive.

The record behind these values is ChEMBL document CHEMBL1153916, “Lithospermic acid derivatives from Lithospermum erythrorhizon increased expression of serine palmitoyltransferase in human HaCaT cells” (Bioorg Med Chem Lett, 2009).
